From patent US20230172897A1, “METHODS OF TREATING BREAST CANCERS WITH SELECTIVE ANDROGEN RECEPTOR MODULATORS AND ADDITIONAL THERAPEUTIC AGENTS” (VERU, INC., priority 2021, published 2023)
“And” between values parts separate entries of the source, which are not always exact repeats. Identical values can stand only once.

Legend:
[1] = system: MCF-7-GFP cells; format: cell-based; conditions: 10 days
Method: After 6 days of treatment, cells were harvested, and the number of cells was counted. […] Medium was changed after 3 days and re-treated. Cells were fixed after 6 days of treatment and the cell viability was measured by SRB assay. […] Medium was changed, and the cells were re-treated on days 4 and 7. Medium was collected, pooled from triplicates, and stored in −80° C. After 10 days of treatment, cells were fixed, and cell viability was measured using SRB. MCF-7 cells stably transfected with GFP (MCF-7-GFP) were plated in growth medium. Twenty-four hours after plating, cells were fed with the conditioned medium obtained from patient-derived fibroblasts as indicated above. Cells were fed for 10 days with conditioned medium, with medium changed on days 4 and 7. After 10 days of treatment, cells were fixed, and the viability was measured by SRB assay. […] AR-positive, but ER-negative HCI-9 PDX was surgically implanted as 1 mm^3 fragments under the mammary fat pad in NSG mice (n=8-10/group). […] Tumor volume was measured thrice weekly. […] ER-α from HCI-13 was cloned into pCR3.1 vector. […] Twenty four hours after treatment cells were harvested and luciferase assay was performed. […] Values are expressed as average ±S.E. from n=3-4/data point.
Conditioned medium was replaced on days 4 and 7 and the cells were stained with SRB to measure viability.

[2] = system: metastatic or locally advanced ER+/AR+ breast cancer; experiment: Phase 2 clinical trial (G200802), 9 mg or 18 mg daily; format: in vivo, postmenopausal women; conditions: for Best overall objective tumor response: CR (number) / Best overall objective tumor response: PR (number): all evaluable patients; for Average rPFS / Clinical Benefit Response Rate / Clinical Benefit Responses (CR + PR + SD) / Median rPFS / Objective Response Rate / Objective Responses (CR + PR): measurable disease at baseline
Method: Each dose arm was treated independently, and each assessed for efficacy using Simon's two-stage (optimal) design (Simon R. Optimal two-stage designs for Phase 2 clinical trials. Controlled Clinical Trials 1989; 10: 1-10). Subjects were randomized in a 1:1 fashion to one of the two dose arms.
Randomization was stratified by subjects presenting with bone only metastases and all other subjects, and further by setting of immediately preceding therapy (adjuvant setting or metastatic setting) in order to balance the proportion of subjects with these presenting features in each dose arm.
Thirty-six to eighty-eight (36-88) subjects with centrally confirmed AR+ who received at least one dose of study drug (evaluable subjects) were needed for primary efficacy analysis purposes and were a subset of the full analysis set (FAS). Fifty patients in the 9 mg cohort and 52 patients in the 18 mg cohort met these criteria. […] Other statistical parameters that were part of the sample size calculation are α=0.025 (one-sided) and power=90%. The first stage in each study arm was assessed among the first 18 evaluable subjects. Greater than 3/18 subjects achieved CB (defined as CR, PR, or SD) at week 24, and both arms proceeded to the second stage of recruitment up to a total of 44 evaluable subjects per arm. Otherwise, the arm would have been discontinued for lack of efficacy. Statistical significance, i.e., rejection of the null hypothesis of an unacceptably low CBR of ≤10% in favor of the alternative hypothesis that indicated the higher rate, ≥30%, was more likely, would be declared if at least 9/44 subjects achieved CB at week 24 in that arm.
These patients on the study had measurable disease at baseline and an AR staining prior to entry into the study. The radiographic imaging in this patient population was done every 12 weeks (2.7 months). Therefore, the minimum radiographic progression free survival (rPFS) that could be determined is approximately 2.7 months. 90% of the patients in the study had previously received non-endocrine based chemotherapy. The patients in this study had failed an average of 2 prior treatment lines for metastatic disease (range=0-5). FIG. 43 provides a scatterplot for the patients in this study with regard to the correlation between % AR-positive staining at baseline (% AR staining) and rPFS. […] However, in patients with greater than or equal to 40% AR-positive staining, the rPFS was delayed to variable extents (scatter plot pattern) in many to most cases. A positive correlation between rPFS and % AR staining was seen above the threshold of 40% AR staining. To explore this positive correlation further, several subgroups of AR % staining were defined and analyzed for metrics of efficacy, as shown in Table 14.

[3] = target: T1, purified AR-LBD protein (Homo sapiens, UniProt P10275); experiment: In vitro competitive radioligand binding assay with [3H]MIB; conditions: relative to DHT
T1 construct: purified AR-LBD protein
T1 sequence (P10275 669-900 limits assumed): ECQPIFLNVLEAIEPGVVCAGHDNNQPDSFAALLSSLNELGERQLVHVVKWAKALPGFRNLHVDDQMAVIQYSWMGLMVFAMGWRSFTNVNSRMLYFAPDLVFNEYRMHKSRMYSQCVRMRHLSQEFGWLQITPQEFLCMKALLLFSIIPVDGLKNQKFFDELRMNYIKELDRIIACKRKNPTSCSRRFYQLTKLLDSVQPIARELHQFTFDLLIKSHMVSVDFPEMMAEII

SMILES: C[C@](O)(COc1ccc(C#N)cc1)C(=O)Nc1ccc(C#N)c(C(F)(F)F)c1 [Formula IX, (S)—N-(4-Cyano-3-(trifluoromethyl)phenyl)-3-(4-cyanophenoxy)-2-hydroxy-2-methylpropanamide]
- proliferation of MCF-7-GFP cells fed with conditioned medium of treated CAFs [1]: inhibited the proliferation
- clinical benefit rate at 6 months ([2]; 9 mg): 32%
- Quality of life assessments ([2]; 9 mg and 18 mg cohorts): significant improvement from baseline
- tolerability ([2]; 9 mg and 18 mg doses): well tolerated
- response rate in patients previously treated with palbociclib and failed ([2]; 9 mg arm, 3 patients): 33%
- Median duration of clinical benefit ([2]; 9 mg group): not reached
- Best overall objective tumor response: CR (number) ([2]; 9 mg, post-hoc): 3
- Best overall objective tumor response: PR (number) ([2]; 9 mg, post-hoc): 8
- Average rPFS ([2]; 9 mg, % AR staining 20-40): 2.51 months
- Clinical Benefit Response Rate ([2]; 9 mg, % AR staining 20-40): 22%
- Clinical Benefit Responses (CR + PR + SD) ([2]; 9 mg, % AR staining 20-40): 2
- Median rPFS ([2]; 9 mg, % AR staining 20-40): 2.77 months
- Objective Response Rate ([2]; 9 mg, % AR staining 20-40): 0%
- Objective Responses (CR + PR) ([2]; 9 mg, % AR staining 20-40): 0
- Average rPFS ([2]; 9 mg, % AR staining 40-60): 4.62 months
- Clinical Benefit Response Rate ([2]; 9 mg, % AR staining 40-60): 86%
- Clinical Benefit Responses (CR + PR + SD) ([2]; 9 mg, % AR staining 40-60): 6
- Median rPFS ([2]; 9 mg, % AR staining 40-60): 2.93 months
- Objective Response Rate ([2]; 9 mg, % AR staining 40-60): 43%
- Objective Responses (CR + PR) ([2]; 9 mg, % AR staining 40-60): 3
- Average rPFS ([2]; 9 mg, % AR staining 60-80): 8.10 months
- Clinical Benefit Response Rate ([2]; 9 mg, % AR staining 60-80): 80%
- Clinical Benefit Responses (CR + PR + SD) ([2]; 9 mg, % AR staining 60-80): 8
- Median rPFS ([2]; 9 mg, % AR staining 60-80): 5.60 months
- Objective Response Rate ([2]; 9 mg, % AR staining 60-80): 60%
- Objective Responses (CR + PR) ([2]; 9 mg, % AR staining 60-80): 6
- Average rPFS ([2]; 9 mg, % AR staining <20): 2.83 months
- Clinical Benefit Response Rate ([2]; 9 mg, % AR staining <20): 15%
- Clinical Benefit Responses (CR + PR + SD) ([2]; 9 mg, % AR staining <20): 2
- Median rPFS ([2]; 9 mg, % AR staining <20): 2.70 months
- Objective Response Rate ([2]; 9 mg, % AR staining <20): 0%
- Objective Responses (CR + PR) ([2]; 9 mg, % AR staining <20): 0
- Average rPFS ([2]; 9 mg, % AR staining <40): 2.7 months and 2.70 months
- Clinical Benefit Response Rate ([2]; 9 mg, % AR staining <40): 18%
- Clinical Benefit Responses (CR + PR + SD) ([2]; 9 mg, % AR staining <40): 4
- Median rPFS ([2]; 9 mg, % AR staining <40): 2.72 months
- Objective Responses (CR + PR) ([2]; 9 mg, % AR staining <40): 0
- Average rPFS ([2]; 9 mg, % AR staining <60): 3.17 months
- Clinical Benefit Response Rate ([2]; 9 mg, % AR staining <60): 34%
- Clinical Benefit Responses (CR + PR + SD) ([2]; 9 mg, % AR staining <60): 10
- Median rPFS ([2]; 9 mg, % AR staining <60): 2.77 months
- Objective Response Rate ([2]; 9 mg, % AR staining <60): 10%
- Objective Responses (CR + PR) ([2]; 9 mg, % AR staining <60): 3
- Average rPFS ([2]; 9 mg, % AR staining >40): 7.15 months
- Clinical Benefit Response Rate ([2]; 9 mg, % AR staining >40): 80%
- Clinical Benefit Responses (CR + PR + SD) ([2]; 9 mg, % AR staining >40): 20
- Median rPFS ([2]; 9 mg, % AR staining >40): 5.47 months
- Objective Responses (CR + PR) ([2]; 9 mg, % AR staining >40): 12
- Average rPFS ([2]; 9 mg, % AR staining >60): 8.14 months
- Clinical Benefit Response Rate ([2]; 9 mg, % AR staining >60): 78%
- Clinical Benefit Responses (CR + PR + SD) ([2]; 9 mg, % AR staining >60): 14
- Median rPFS ([2]; 9 mg, % AR staining >60): 5.60 months
- Objective Response Rate ([2]; 9 mg, % AR staining >60): 50%
- Objective Responses (CR + PR) ([2]; 9 mg, % AR staining >60): 9
- Average rPFS ([2]; 9 mg, % AR staining >80): 8.18 months
- Clinical Benefit Response Rate ([2]; 9 mg, % AR staining >80): 75%
- Clinical Benefit Responses (CR + PR + SD) ([2]; 9 mg, % AR staining >80): 6
- Median rPFS ([2]; 9 mg, % AR staining >80): 6.23 months
- Objective Response Rate ([2]; 9 mg, % AR staining >80): 38%
- Objective Responses (CR + PR) ([2]; 9 mg, % AR staining >80): 3
- median duration of response in patients with an objective tumor response ([2]; 9 mg, post-hoc): 8.18 months
- responders with duration of response >12 months ([2]; 9 mg, post-hoc): 25%
- responders with duration of response ≥6 months ([2]; 9 mg, post-hoc): 67%
- clinical benefit rate at 6 months ([2]; 18 mg): 29%
- response rate in patients previously treated with palbociclib and failed ([2]; 18 mg arm, 6 patients): 33%
- Median duration of clinical benefit ([2]; 18 mg group): 14.1 months
- Best overall objective tumor response: CR (number) ([2]; 18 mg, post-hoc): 1
- Best overall objective tumor response: PR (number) ([2]; 18 mg, post-hoc): 5
- patients with an objective response after progression on estrogen blocking agents and CDK 4/6 inhibitor ([2]; AR nuclei staining ≥40% (7 patients), post-hoc): 3 patients
- objective response rate after progression on estrogen blocking agents and CDK 4/6 inhibitor ([2]; AR nuclei staining ≥60% subgroup (4 patients)): 75%
- first stage: subjects achieving CB at week 24 ([2]; both arms (9 mg, 18 mg), first 18 evaluable subjects): Greater than 3/18

SMILES: C[C@](O)(COc1ccc(C#N)cc1)C(=O)Nc1ccc(C#N)c(Cl)c1 [Formula VIII, (S)—N-(3-chloro-4-cyanophenyl)-3-(4-cyanophenoxy)-2-hydroxy-2-methylpropanamide]
- relative binding affinities (RBAs) for AR [3]: 0.314
